We go through 23 molecules from US10899754B2, “Modulators of indoleamine 2,3-dioxygenase” (GLAXOSMITHKLINE INTELLECTUAL PROPERTY DEVELOPMENT LIMITED, priority 2016, dated 2021).

Data set [1] addresses indoleamine 2, 3-dioxygenase (IDO1) (Homo sapiens, UniProt P14902). Kind of data set: IDO1 HeLa RapidFire MS assay (kynurenine detection by mass spectrometry). The settings on record: HeLa cells, pIC50, read-out: IDO1_HELA_PXC50 (converted). Set-up: to induce the expression of indoleamine 2, 3-dioxygenase (IDO1). The format is cell-based. On the procedure:
IDO1 HeLa RapidFire MS Assay
(§1) Compounds of the present invention were tested via high-throughput cellular assays utilizing detection of kynurenine via mass spectrometry and cytotoxicity as end-points. For the mass spectrometry and cytotoxicity assays, human epithelial HeLa cells (CCL-2; ATCC®, Manassas, Va.) were stimulated with human interferon-γ (IFN-γ) (Sigma-Aldrich Corporation, St. Louis, Mo.) to induce the expression of indoleamine 2, 3-dioxygenase (IDO1). Compounds with IDO1 inhibitory properties decreased the amount of kynurenine produced by the cells via the tryptophan catabolic pathway. Cellular toxicity due to the effect of compound treatment was measured using CellTiter-Glo® reagent (CTG) (Promega Corporation, Madison, Wis.), which is based on luminescent detection of ATP, an indicator of metabolically active cells.
(§2) In preparation for the assays, test compounds were serially diluted 3-fold in DMSO from a typical top concentration of 1 mM or 5 mM and plated at 0.5 μL in 384-well, polystyrene, clear bottom, tissue culture treated plates with lids (Greiner Bio-One, Kremsmünster, Austria) to generate 11-point dose response curves. Low control wells (0% kynurenine or 100% cytotoxicity) contained either 0.5 μL of DMSO in the presence of unstimulated (−IFN-γ) HeLa cells for the mass spectrometry assay or 0.5 μL of DMSO in the absence of cells for the cytotoxicity assay, and high control wells (100% kynurenine or 0% cytotoxicity) contained 0.5 μL of DMSO in the presence of stimulated (+IFN-γ) HeLa cells for both the mass spectrometry and cytotoxicity assays.
(§3) Frozen stocks of HeLa cells were washed and recovered in DMEM high glucose medium with HEPES (Thermo Fisher Scientific, Inc., Waltham, Mass.) supplemented with 10% v/v certified fetal bovine serum (FBS) (Thermo Fisher Scientific, Inc., Waltham, Mass.), and 1× penicillin-streptomycin antibiotic solution (Thermo Fisher Scientific, Inc., Waltham, Mass.). The cells were diluted to 100,000 cells/mL in the supplemented DMEM medium. 50 μL of either the cell suspension, for the mass spectrometry assay, or medium alone, for the cytotoxicity assay, were added to the low control wells, on the previously prepared 384-well compound plates, resulting in 5,000 cells/well or 0 cells/well respectively. IFN-γ was added to the remaining cell suspension at a final concentration of 10 nM, and 50 μL of the stimulated cells were added to all remaining wells on the 384-well compound plates. The plates, with lids, were then placed in a 37° C., 5% CO2 humidified incubator for 2 days.
(§4) Following incubation, the 384-well plates were removed from the incubator and allowed to equilibrate to room temperature for 30 minutes. For the cytotoxicity assay, CellTiter-Glo® was prepared according to the manufacturer's instructions, and 10 μL were added to each plate well. After a twenty minute incubation at room temperature, luminescence was read on an EnVision® Multilabel Reader (PerkinElmer Inc., Waltham, Mass.). For the mass spectrometry assay, 10 μL of supernatant from each well of the compound-treated plates were added to 40 μL of acetonitrile, containing 10 μM of an internal standard for normalization, in 384-well, polypropylene, V-bottom plates (Greiner Bio-One, Kremsmünster, Austria) to extract the organic analytes. Following centrifugation at 2000 rpm for 10 minutes, 10 μL from each well of the acetonitrile extraction plates were added to 90 μL of sterile, distilled H2O in 384-well, polypropylene, V-bottom plates for analysis of kynurenine and the internal standard on the RapidFire 300 (Agilent Technologies, Santa Clara, Calif.) and 4000 QTRAP MS (SCIEX, Framingham, Mass.). MS data were integrated using Agilent Technologies' RapidFire Integrator software, and data were normalized for analysis as a ratio of kynurenine to the internal standard. […]

The test system of data set [2] is human epithelial HeLa cells. The experiment in a line: HeLa cytotoxicity assay (CellTiter-Glo). The data set is classed as cell-based. Particulars: pCC50. As to the method: as §1, §2, §3, §4
Background: ATP-based viability assays read luminescence as a measure of living cells.

Sequence of indoleamine 2, 3-dioxygenase (IDO1) (P14902 whole entry): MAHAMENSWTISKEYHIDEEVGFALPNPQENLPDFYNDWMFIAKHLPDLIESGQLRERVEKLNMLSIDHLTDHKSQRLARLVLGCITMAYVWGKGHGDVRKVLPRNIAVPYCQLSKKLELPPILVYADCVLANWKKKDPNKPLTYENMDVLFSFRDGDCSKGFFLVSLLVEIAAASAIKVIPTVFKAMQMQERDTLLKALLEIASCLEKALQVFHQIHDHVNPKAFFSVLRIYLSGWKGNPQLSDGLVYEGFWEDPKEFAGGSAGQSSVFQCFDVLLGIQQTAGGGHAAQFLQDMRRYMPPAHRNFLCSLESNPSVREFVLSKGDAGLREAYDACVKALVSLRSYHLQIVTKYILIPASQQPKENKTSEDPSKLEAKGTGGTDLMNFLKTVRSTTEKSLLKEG

Regarding `CC(=O)Nc1ccc(Nc2cc(C(C)CC(=O)O)ccc2N(CC(C)C)CC(C)C)nc1` (stereo not shown) [example 199, 3-{4-[bis(2-methylpropyl)amino]-3-[(5-acetamidopyridin-2-yl)amino]phenyl}butanoic acid], the IC50 in data set [1] is 6310 nM. The molecule further registered an HELA_IDO1_TOX_PXC50 in data set [2] of less than 5.
On the same counts, the results for `CC(C)CN(c1ccc(-c2cccnc2C(=O)O)cc1Nc1nc2ccccc2[nH]1)C1CCCCC1` [example 278, 3-{3-[(1H-1,3-benzodiazol-2-yl)amino]-4-[cyclohexyl(2-methylpropyl)amino]phenyl}pyridine-2-carboxylic acid] are 50.1 nM and less than 5.
Taken in the same sequence, the figures for `CC(C)CN(c1ccc(-c2ncccc2C(=O)O)cc1Nc1nc2ccccc2o1)C1CCCCC1` [example 292, 2-{3-[(1,3-benzoxazol-2-yl)amino]-4-[cyclohexyl(2-methylpropyl)amino]phenyl}pyridine-3-carboxylic acid] were 794 nM and less than 5.
For the molecule `CC(C)CN(c1ccc(-c2cn(C)nc2C(=O)O)cc1Nc1nc2ccccc2o1)C1CCCCC1` [example 176, 4-{3-[(1,3-benzoxazol-2-yl)amino]-4-[cyclohexyl(2-methylpropyl)amino]phenyl}-1-methyl-1H-pyrazole-3-carboxylic acid], in data set [1], the IC50 was 3160 nM. This molecule yielded an HELA_IDO1_TOX_PXC50 in data set [2] of less than 5.
On the same counts, the results for `CC(C)CN(CC(C)C)c1ccc(C(C)CC(=O)O)cc1NC1CCC(C(=O)O)CC1` (stereo not shown) [example 198, 4-({2-[bis(2-methylpropyl)amino]-5-(1-carboxypropan-2-yl)phenyl}amino)cyclo-hexane-1-carboxylic acid] are more than 10000 nM and less than 5.
Consider `CC(C)CN(c1ccc(-c2ccccc2C(=O)O)cc1Nc1nc2ccccc2[nH]1)C1CCOCC1` [example 296, 3′-[(1H-1,3-benzodiazol-2-yl)amino]-4′-[(2-methylpropyl)(oxan-4-yl)amino]-[1,1′-biphenyl]-2-carboxylic acid], for which, in data set [1], the IC50 is 631 nM. The molecule also registered an HELA_IDO1_TOX_PXC50 in data set [2] of less than 5.
Take `COCc1ncc(Nc2cc(C(C)CC(=O)O)ccc2N(CC(C)C)CC(C)C)s1` (stereo not shown) [example 189, 3-{4-[bis(2-methylpropyl)amino]-3-{[2-(methoxymethyl)-1,3-thiazol-5-yl]amino}phenyl}butanoic acid]: the IC50 in data set [1] was 200 nM. For the same molecule, the HELA_IDO1_TOX_PXC50 in data set [2] is recorded as less than 5.
Taken in the same sequence, the figures for `CC(C)CN(CC(C)C)c1ccc(C(C)CC(=O)O)cc1Nc1nnc(NS(C)(=O)=O)s1` (stereo not shown) [example 192, 3-{4-[bis(2-methylpropyl)amino]-3-[(5-methanesulfonamido-1,3,4-thiadiazol-2-yl)amino]phenyl}butanoic acid] were 5010 nM and less than 5.
Taken in the same sequence, the figures for `CC(C)CN(c1ccc(C(C)CC(=O)O)cc1Nc1nc(Cl)ns1)C1COC1` (stereo not shown) [example 205, 3-{3-[(3-chloro-1,2,4-thiadiazol-5-yl)amino]-4-[{2-methylpropyl)(oxetan-3-yl)amino]phenyl}butanoic acid] were more than 10000 nM and less than 5.
On the same counts, the results for `CC(C)CN(CC(C)C)c1ccc(C(C)CC(=O)O)cc1Nc1ccc(CO)cn1` (stereo not shown) [example 194, 3-{4-[bis(2-methylpropyl)amino]-3-{[5-(hydroxymethyl)pyridin-2-yl]amino}phenyl}butanoic acid] are 200 nM and less than 5.
Turning to `CC(C)CN(CC(C)C)c1ccc(C(C)CC(=O)O)cc1Nc1nc(-c2ccccc2)cs1` (stereo not shown) [example 128, 3-{4-[bis(2-methylpropyl)amino]-3-[(4-phenyl-1,3-thiazol-2-yl)amino]phenyl}butanoic acid], in data set [1], the IC50 was 2510 nM. The molecule also yielded an HELA_IDO1_TOX_PXC50 in data set [2] of 4.4.
`COc1ccnc(Nc2cc(C(C)CC(=O)O)ccc2N(CC(C)C)CC(C)C)n1.O=C(O)C(F)(F)F` (stereo not shown) [example 127, 3-{4-[bis(2-methylpropyl)amino]-3-[(4-methoxypyrimidin-2-yl)amino]phenyl}butanoic acid]: the IC50 in data set [1] was 2510 nM. For the same molecule, in data set [2], the HELA_IDO1_TOX_PXC50 was less than 4.3.
Regarding `CC(C)CN(CC(C)C)c1ccc(C(C)CC(=O)O)cc1NCc1noc(C2CC2)n1` (stereo not shown) [example 147, 3-{4-[bis(2-methylpropyl)amino]-3-{[(5-cyclopropyl-1,2,4-oxadiazol-3-yl)methyl]amino}phenyl} butanoic acid], the IC50 in data set [1] is more than 10000 nM. This molecule also showed an HELA_IDO1_TOX_PXC50 in data set [2] of less than 5.
Taken in the same sequence, the figures for `CC(C)CN(CC(C)C)c1ccc(C(C)CC(=O)O)cc1Nc1ccc(C(N)=O)cn1` (stereo not shown) [example 204, 3-{4-[bis(2-methylpropyl)amino]-3-[(5-carbamoylpyridin-2-yl)amino]phenyl}butanoic acid] were 3160 nM and less than 5.
As to `CC(C)CN(c1ccc([C@H](C)CC(=O)O)cc1NC(C)CCO)C1CCCCC1` (stereo partly drawn) [example 185, (3R)-3-{4-[cyclohexyl(2-methylpropyl)amino]-3-[(4-hydroxybutan-2-yl)amino]phenyl}butanoic acid], the IC50 in data set [1] was 1580 nM. This molecule also returned an HELA_IDO1_TOX_PXC50 in data set [2] of less than 5.
On the same counts, the results for `CC(C)CN(c1ccc([C@H](C)CC(=O)O)cc1NC(C)C)C1CCCCC1` [example 180, (3R)-3-{4-[cyclohexyl(2-methylpropyl)amino]-3-[(propan-2-yl)amino]phenyl}butanoic acid] are 3980 nM and less than 5.
On the same counts, the results for `CC(C)CN(c1ccc(C(C)CC(=O)O)cc1Nc1nc2n(n1)CCCC2)C1CCCCC1` (stereo not shown) [example 150, 3-{4-[cyclohexyl(2-methylpropyl)amino]-3-({5H,6H,7H,8H-[1,2,4]triazolo[1,5-a]pyridin-2-yl}amino)phenyl}butanoic acid] are 3160 nM and less than 5.
On the same counts, the results for `CC(C)CN(CC(C)C)c1ccc(C(C)CC(=O)O)cc1Nc1ccccc1` (stereo not shown) [example 142, 3-{4-[bis(2-methylpropyl)amino]-3-(phenylamino)phenyl} butanoic acid] are 158 nM and less than 5.
As to `CC(C)CN(CC(C)C)c1ccc(C(C)CC(=O)O)cc1Nc1cnc(CO)s1` (stereo not shown) [example 207, 3-{4-[bis(2-methylpropyl)amino]-3-{[2-(hydroxymethyl)-1,3-thiazol-5-yl]amino}phenyl}butanoic acid], the IC50 in data set [1] is 631 nM. Besides, in data set [2], the HELA_IDO1_TOX_PXC50 was less than 5.
On the same counts, the results for `COCc1ncc(Nc2cc(C(C)CC(=O)O)ccc2N(CC(C)C)CC(C)C)o1` (stereo not shown) [example 191, 3-{4-[bis(2-methylpropyl)amino]-3-{[2-(methoxymethyl)-1,3-oxazol-5-yl]amino]phenyl}butanoic acid] are 2000 nM and less than 5.
`CC(C)CN(CC(C)C)c1ccc([C@@H]2C[C@@H]2C(=O)O)cc1Nc1nc(C(F)(F)F)ns1` (single isomer, unassigned) [example 206]: the IC50 in data set [1] is 31.6 nM. The same molecule had an HELA_IDO1_TOX_PXC50 in data set [2] of less than 5.
Taken in the same sequence, the figures for `COCc1nnc(Nc2cc(C(C)CC(=O)O)ccc2N(CC(C)C)CC(C)C)s1` (stereo not shown) [example 188, 3-{4-[bis(2-methylpropyl)amino]-3-{[5-(methoxymethyl)-1,3,4-thiadiazol-2-yl]amino}phenyl}butanoic acid] were 126 nM and less than 5.
As to `CC(C)CN(c1ccc(C(C)CC(=O)O)cc1NC1COC1)C1CCCCC1` (stereo not shown) [example 129, 3-{4-[cyclohexyl(2-methylpropyl)amino]-3-[(oxetan-3-yl)amino]phenyl}butanoic acid], the IC50 in data set [1] is 1580 nM. Moreover, the HELA_IDO1_TOX_PXC50 in data set [2] is listed as less than 4.3.
